Data: PubChem BioAssay AID1413 (The Scripps Research Institute Molecular Screening Center, 2008)
Calls of active or inactive are those of the source.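 Rule for the calls: active = CC50, the dose killing half the cells, at or below 10 µM, by curve fit or manual estimate; inactive = CC50 above 10 µM.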

System: HeLa viability, CellTiter-Glo ATP luminescence
Assay: viability loss of HeLa cells – cell-based, CellTiter-Glo luminescence, cytotoxicity control for Wee1 degradation inhibitor project, dose response (AID 1413)

| Structure (SMILES) | CC50 |
| --- | --- |
| CCOc1cccc(N(C(=O)Cc2cccs2)C(C(=O)NC2CCCCC2)c2cccn2C)c1 (stereo not drawn) | > 49.8 µM (inactive) |
| Cc1csc2sc(-c3ccnc(SCC(=O)NCc4ccccc4)n3)c(C)c12 | > 49.8 µM (inactive) |
| O=C(N=Nc1c(O)[nH]c2ccc(Br)cc12)c1ccccc1-n1cccc1 | > 49.8 µM (inactive) |
| O=C(/C=C/c1ccccc1)Nc1ccc(Cl)cn1 | > 49.8 µM (inactive) |
| Cc1ccnc(NC(=O)CCCOc2cc(=O)n(C)c3ccccc23)c1 | > 49.8 µM (inactive) |
| Cn1cccc1/C=C1\SC(=Nc2ccccc2)NC1=O | > 49.8 µM (inactive) |
| COc1cccc(/C=N/NC(=O)c2cc3c(OC)c(OC)ccc3[nH]2)c1OC | > 49.8 µM (inactive) |
| O=S(=O)(C/C(=C/CO)S(=O)(=O)c1ccccc1)c1ccccc1 | > 49.8 µM (inactive) |
| COc1ccccc1-c1ccc(SCc2ccccc2F)nn1 | > 49.8 µM (inactive) |
| CCOC(=O)C1=C(c2ccccc2)O/C(=C(/C#N)C(F)(F)F)S1 | 7.17 µM |
| O=C(Nc1ccc(Cl)c(Cl)c1)Nc1nccs1 | > 49.8 µM (inactive) |
| Cc1ccc(Nc2cc(C)nn2-c2nc(C)cc(=O)[nH]2)cc1 | > 49.8 µM (inactive) |
| O=C(COc1ccc(C(=O)c2ccc(F)cc2)cc1)NCc1ccc(F)cc1 | > 49.8 µM (inactive) |
| CCN(CC)c1ccc(/C=N/NC(=O)c2cnccn2)cc1 | > 49.8 µM (inactive) |
| COc1ccc(/C=N/NC(=O)c2ccc3ccccc3c2)cc1OS(=O)(=O)c1ccc(NC(C)=O)cc1 | > 49.8 µM (inactive) |
| Cc1ccc(/C=N/NC(=O)c2ccc3c(c2)OCCO3)s1 | > 49.8 µM (inactive) |
| C=CS(=O)(=O)c1ccc(Oc2ccc(S(=O)(=O)C=C)cc2)cc1 | > 49.8 µM (inactive) |
| O=[N+]([O-])c1ccc(Sc2cccc[n+]2[O-])c2nonc12 | 6.76 µM |
| CCOC(=O)N1CCN(C(=O)c2cc(-c3ccc(OCC)cc3)nc3ccccc23)CC1 | > 49.8 µM (inactive) |

| Structure (SMILES) | CC50 |
| --- | --- |
| COc1cccc(C2=CC(c3cccc(OC)c3OC)n3nnnc3N2)c1 (stereo not drawn) | > 49.8 µM (inactive) |
| CC(=O)Nc1ccc(/C=N/Nc2nc3ccccc3s2)cc1 | > 49.8 µM (inactive) |
| COc1ccc(NC(=O)/C(Cl)=C(/Cl)S(=O)Cc2ccc(C)cc2)cn1 (stereo not drawn) | 14.5 µM (inactive) |
| O=C(/C=C/c1cccnc1)/C=C/c1cccnc1 | > 49.8 µM (inactive) |
| CCN(CC)c1ccc(/C=N/NC(=O)c2ccco2)cc1 | > 49.8 µM (inactive) |
| Cc1nc2ccccn2c1-c1csc(Nc2cccc(O)c2)n1 | > 49.8 µM (inactive) |
| COc1ccc(NC(=O)/C(Cl)=C(/Cl)S(=O)Cc2ccccc2)cn1 (stereo not drawn) | > 16.6 µM (inactive) |
| COc1cc(C2=NOC(C(=O)NCc3cccs3)C2)cc(OC)c1OC (stereo not drawn) | > 49.8 µM (inactive) |
| COc1ccc(Nc2oc(-c3ccc(OC)cc3)nc2C#N)cc1 | > 49.8 µM (inactive) |
| CCCCS(=O)(=O)/C=C\C=C/S(=O)(=O)CCCC | > 16.6 µM (inactive) |
| CCN(CC)S(=O)(=O)c1ccc(C(=O)NCCc2ccccn2)cc1 | > 49.8 µM (inactive) |
| Cc1cccn2c1nc(=S)n2C(=O)c1ccco1 | > 49.8 µM (inactive) |
| O=C1C=CC(O)(c2cc(=O)c3c(O)cc(O)cc3o2)C=C1 | > 49.8 µM (inactive) |
| O=c1[nH]c2ccccc2nc1/C=C(\O)c1cccs1 | > 49.8 µM (inactive) |
| Cc1cc(Cl)ccc1NC(=S)Nc1ccccn1 | > 49.8 µM (inactive) |
| On1onc2c3cc(-c4ccccc4)nc3ccc21 | > 49.8 µM (inactive) |
| CCCC1=Nc2cc(C(=O)NCc3ccco3)ccc2Sc2ccccc21 | > 49.8 µM (inactive) |
| Cc1ccc2nc(NCc3ccccc3)[nH]c2c1 | > 49.8 µM (inactive) |
| COC(=O)C1CCN(C(=O)/C=C/c2ccc(OC)cc2)CC1 | > 49.8 µM (inactive) |
